Reference: paper PMC9181543, “Lysosomal Exocytosis of Olivacine on the Way to Explain Drug Resistance in Cancer Cells” (International Journal of Molecular Sciences, 2022)

Legend:
LoVo/DX cells [1] = assay: SRB assay (total protein content), LoVo/DX; format: cell-based; settings: Homo sapiens, LoVo/DX cells (doxorubicin-resistant), 48 h incubation
Method: (§1) The anticancer activity of tested compounds was assessed on five human cell lines selected from the panel of tumor cell lines recommended by the National Cancer Institute: A495 (lung carcinoma), CCRF/CEM (acute lymphoblastic leukemia), LoVo and LoVo/DX (two types of colorectal: non-resistant and resistant to doxorubicin), and MCF-7 (breast adenocarcinoma). In addition, the NHDF cell line (normal human dermal fibroblasts) was used to estimate cytotoxicity to noncancer cells. The A549, CCRF/CEM, LoVo, LoVo/DX, and MCF-7 cells were obtained from ECACC, and NHDF cells from LONZA, Belgium. The A549 and MCF-7 cells were grown in EMEM medium, CCRF/CEM cells in RPMI-1640, LoVo and LoVo/DX cells in DMEM/F-12, and NHDF cells in DMEM without phenol red. The cells were seeded in […] in the biological assay, as recommended by the National Cancer Institute. All culture media were supplemented with L-glutamine, penicillin, streptomycin, and 10% fetal bovine serum (FBS). Cells were incubated at 37 °C and 5% CO2. One of the most popular in vitro tests to evaluate the activity of compounds with potential antitumor activity is the SRB assay. The sulforhodamine B dye is used, which binds to the protein at the appropriate pH. The assay allows for assessing cell mass and, indirectly, their proliferation. The advantage of the assay is that it measures cellular protein content and not the activity of any enzymes. The SRB assay was carried out according to the National Cancer Institute procedure. Cells were incubated in a culture medium for 24 h in 96-well plates. After 24 h, the control plate for each cell line was fixed with TCA to evaluate cell culture before treatment with tested compounds. […] Cell cultures were then fixed by adding 50% TCA at 4 °C for 1 h. After removing the supernatant, the plates were washed with water and dried. […] Growth inhibition was calculated following the NCI guidelines and expressed as the GI50 ratio, i.e., the concentration of the compound in which the amount of protein was reduced by half compared with the control.

A549 cells [2] = assay: MTT assay (mitochondrial activity), A549; format: cell-based; settings: Homo sapiens
Method: (§2) The anticancer activity of tested compounds was assessed on five human cell lines selected from the panel of tumor cell lines recommended by the National Cancer Institute: A495 (lung carcinoma), CCRF/CEM (acute lymphoblastic leukemia), LoVo and LoVo/DX (two types of colorectal: non-resistant and resistant to doxorubicin), and MCF-7 (breast adenocarcinoma). In addition, the NHDF cell line (normal human dermal fibroblasts) was used to estimate cytotoxicity to noncancer cells. The A549, CCRF/CEM, LoVo, LoVo/DX, and MCF-7 cells were obtained from ECACC, and NHDF cells from LONZA, Belgium. The A549 and MCF-7 cells were grown in EMEM medium, CCRF/CEM cells in RPMI-1640, LoVo and LoVo/DX cells in DMEM/F-12, and NHDF cells in DMEM without phenol red. The cells were seeded in […] in the biological assay, as recommended by the National Cancer Institute. All culture media were supplemented with L-glutamine, penicillin, streptomycin, and 10% fetal bovine serum (FBS). Cells were incubated at 37 °C and 5% CO2. An assessment of the mitochondrial cell activity after applying tested compounds was carried out using the test MTT assay, recommended in the ISO 10993-5:2009 standard. As in the SRB assay, the cells were exposed to tested compounds after 24 h of initial incubation in 96-well plates. The MTT solution (1 mg/mL) was added to each well, and cells were incubated for 2 h. Finally, the supernatant was removed, and the formazan crystals were dissolved in isopropanol. After 30 min, absorbance at 570 nm in Victor2 microplate reader (PerkinElmer). Cell viability was determined as the IC50 ratio, i.e., the concentration of the compound in which the viability was reduced by half compared with the control.

CCRF/CEM cells [3] = assay: Rate of apoptosis (annexin V/PI, Tali Apoptosis Kit); format: cell-based, human; settings: 24 h incubation, tested 0.2, 0.5 and 1 μM
Method: Apoptosis is a process of programmed cell death. After exposure to tested compounds, the apoptosis rate was measured using Tali Apoptosis Kit (Invitrogen, Thermo Fisher Scientific, Waltham, MA, USA). In the process of apoptosis, phosphatidylserine (PS) is transferred to the outer side of the cell membrane. The assay uses the ability of fluorophore-labeled annexin V to identify apoptotic cells by binding to exposed PS. The CCRF/CEM cells were incubated in RPMI-1640 medium in 24-well plates for 24 h (37 °C, 5% CO2). Then, tested compounds were added at three different concentrations (0.2, 0.5, and 1 μM) and incubated for 24 h. Negative control was the culture of cells not exposed to apoptosis-inducing factors. After incubation with tested compounds, the cells were harvested, centrifuged, and the supernatant removed. Cells were suspended in annexin V binding buffer (ABB), and Alexa Fluor 488 annexin V conjugate was added to each sample. The cells were then incubated for 20 min in the dark at RT, centrifuged, and resuspended in ABB with propidium iodide (PI). After 5 min incubation, the stained samples were transferred to Tali Cellular Analysis Slides and analyzed using an image-based cytometer Arthur (NanoEnTek Inc., Seoul, Korea).

NHDF cells = assay: SRB assay (total protein content), NHDF; format: cell-based; settings: Homo sapiens, NHDF normal cells, 48 h incubation
Method: as §1

A549 cells [4] = assay: SRB assay (total protein content), A549; format: cell-based; settings: Homo sapiens, 48 h incubation
Method: The anticancer activity of tested compounds was assessed on five human cell lines selected from the panel of tumor cell lines recommended by the National Cancer Institute: A495 (lung carcinoma), CCRF/CEM (acute lymphoblastic leukemia), LoVo and LoVo/DX (two types of colorectal: non-resistant and resistant to doxorubicin), and MCF-7 (breast adenocarcinoma). In addition, the NHDF cell line (normal human dermal fibroblasts) was used to estimate cytotoxicity to noncancer cells. The A549, CCRF/CEM, LoVo, LoVo/DX, and MCF-7 cells were obtained from ECACC, and NHDF cells from LONZA, Belgium. The A549 and MCF-7 cells were grown in EMEM medium, CCRF/CEM cells in RPMI-1640, LoVo and LoVo/DX cells in DMEM/F-12, and NHDF cells in DMEM without phenol red. The cells were seeded in […] in the biological assay, as recommended by the National Cancer Institute. All culture media were supplemented with L-glutamine, penicillin, streptomycin, and 10% fetal bovine serum (FBS). Cells were incubated at 37 °C and 5% CO2. One of the most popular in vitro tests to evaluate the activity of compounds with potential antitumor activity is the SRB assay. […] Growth inhibition was calculated following the NCI guidelines and expressed as the GI50 ratio, i.e., the concentration of the compound in which the amount of protein was reduced by half compared with the control.

CCRF/CEM cells [5] = assay: SRB assay (total protein content), CCRF/CEM; format: cell-based; settings: Homo sapiens, 48 h incubation
Method: as §1

MCF-7 cells = assay: SRB assay (total protein content), MCF-7; format: cell-based; settings: Homo sapiens, MCF7, 48 h incubation
Method: as §1

A549 cells [6] = assay: Proton pump blocking test (omeprazole) for lysosomal exocytosis; format: cell-based, human; settings: for intracellular localisation: LysoTracker staining
Method: To assess whether the exocytosis of olivacine and ellipticine from cancer cells is lysosomal, a proton pump blocking test was performed. Omeprazole was added into A549 cells at a concentration of 200 µM for 1 h. The cell culture was then washed twice with PBS, and the cells were treated with tested compounds. The cell culture was assessed using an Evos FL microscope. The lysosomes were stained using LysoTracker™ Deep Red kit (L12492; Invitrogen). Cultured cells were evaluated using an Evos FL microscope, taking photos every 15 min. After treatment with olivacine or olivacine and omeprazole, analysis of mean cell fluorescence was performed from five independent replicates. In addition, 14 pictures were taken from each replicate, and 100 cells were analyzed by photomicrography using the ImageJ platform.

LoVo cells = assay: MTT assay (mitochondrial activity), LoVo; format: cell-based; settings: Homo sapiens
Method: as §2

LoVo/DX cells [7] = assay: MTT assay (mitochondrial activity), LoVo/DX; format: cell-based; settings: Homo sapiens, LoVo/DX cells (doxorubicin-resistant)
Method: as §2

[8] = 1 h pre-incubation with 200 µM omeprazole, compound 10 µM

Row | duration of blockage of exocytosis after omeprazole (A549 cells [6]; [8]) | SMILES | GI50 (LoVo/DX cells [1]) [nM] | IC50 (A549 cells [2]) [µM] | concentration at which apoptosis was induced (CCRF/CEM cells [3]) [µM] | GI50 (NHDF cells) [µM] | GI50 (A549 cells [4]) [nM] | GI50 (CCRF/CEM cells [5]) [nM] | GI50 (MCF-7 cells) [nM] | intracellular localisation (A549 cells [6]; with omeprazole) | intracellular localisation (A549 cells [6]; without omeprazole) | IC50 (LoVo cells) [µM] | IC50 (LoVo/DX cells [7]) [µM] | time after which exocytosis was observed after omeprazole (A549 cells [6]; [8]) [h]
1 | at least 3 h | Cc1nccc2c(C)c3[nH]c4ccccc4c3cc12 [Olivacine, 1,5-dimethyl-6H-pyrido[4,3-b]carbazole] | 820 ± 80 | 17.8 ± 7.82 | 1 | 14.8 ± 3.77 | 930 ± 60 | 810 ± 140 | 750 ± 70 | in the cytoplasm and not in the lysosomes | accumulation of olivacine in the lysosomes | 12.7 ± 1.08 | 26.3 ± 4.64 | 
2 |  | Cc1c2ccncc2c(C)c2c1[nH]c1ccccc12 [Ellipticine] | 750 ± 220 | 12.9 ± 2.36 | 1 | 4.44 ± 0.74 | 720 ± 60 | 770 ± 170 | 1250 ± 770 |  |  | 3.27 ± 0.83 | 15.1 ± 1.73 | > 3
